In patent US7081460B2, “Quinazoline and quinazoline-like compounds for the treatment of integrin-mediated disorders” (Ortho-McNeil Pharmaceutical, Inc., priority 2001, dated 2006):

Key:
GPIIb/IIIa = GPIIb/IIIa (Homo sapiens, UniProt P05106+P08514); experiment: In vitro solid phase purified glycoprotein IIb/IIIa binding assay (biotinylated fibrinogen); conditions: RGD-affinity purified GPIIb/IIIa, biotinylated fibrinogen; read-out: GPIIb/IIIa Binding IC50
Protocol: (§1) In vitro Solid Phase Purified αvβ3 Binding Assay The vitronectin/αvβ3 binding assay methods were derived from Mehta et al. (Biochem J. 1998, 330, 861). Human αvβ3 (Chemicon International Inc., Temecula, Calif.), at a concentration of 1 μg/ml dissolved in Tris buffer (20 mM Tris, 1 mM CaCl2, 1 mM MgCl2, 10 μM MnCl2, 150 mM NaCl), was immobilized on Immulon 96 well plates (Dynex Technologies, Chantilly, Va.) overnight at 4° C. Plates were washed and treated with blocking buffer (3% BSA in Tris buffer) for 2 h at 37 C. Plates were then rinsed 2 times in Tris buffer containing 0.3% BSA and 0.2% Tween20 (polyoxyethylenesorbitan monolaurate). Five minutes prior to the addition of 5 nM vitronectin (Sigma, St. Louis, Mo.), compounds of the invention were added to wells in duplicate. Each plate included c-RGDfV as an internal control. Following a 3 hour incubation at 37° C., plates were washed 5 times in assay buffer. An anti-human vitronectin IgG rabbit polyclonal antibody (Calbiochem, San Diego, Calif.) was added (1:2000) and plates were incubated for 1 hour at room temperature. VectaStain ABC peroxidase kit reagents (Vector Laboratories, Burlingame, Calif.) employing a biotin labeled anti-rabbit IgG, were utilized for detection of bound antibody. Plates were read at 490 nm on a Molecular Devices (Sunnyvale, Calif.) microplate reader. […] The plate was covered and incubated overnight at 4° C. The GPIIb/IIIa solution was discarded and 150 μl of 5% BSA was added and incubated at RT for 1–3 h. The plate was washed extensively with modified Tyrodes buffer. Biotinylated fibrinogen (25 μl/well) at 2× final concentration was added to the wells that contain the test compounds (25 μl/well). The plate was covered and incubated at RT for 2–4 h. Twenty minutes prior to incubation completion, one drop of Reagent A (VectaStain ABC Horse Radish Peroxidase kit, Vector Laboratories, Inc.) and one drop Reagent B were added with mixing to 5 mL modified Tyrodes buffer mix and let stand. The ligand solution was discarded and the plate washed (5×200 μl/well) with modified Tyrodes buffer. Vecta Stain HRP-Biotin-Avidin reagent (50 μl/well, as prepared above) was added and incubated at RT for 15 min. The Vecta Stain solution was discarded and the wells washed (5×200 μl/well) with modified Tyrodes buffer. Developing buffer (10 mL of 50 mM citrate/phosphate buffer @ pH 5.3, 6 mg o-phenylenediamine, 6 μl 30% H2O2; 50 μl/well) was added and incubated at rt for 3–5 min, and then 2 N H2SO4 (50 μl/well) was added. The absorbance was read at 490 nm.

Human αvβ3 = molecular target: T1, Human αvβ3 (Homo sapiens, UniProt P05106+P06756); experiment: In vitro solid phase purified αvβ3 binding assay (vitronectin/αvβ3); conditions: isolated human αvβ3, 5 nM vitronectin; read-out: αvβ3 Binding IC50
T1 construct: purchased Chemicon International Inc., Temecula, Calif
T1 sequence (P06756 31-889 limits assumed): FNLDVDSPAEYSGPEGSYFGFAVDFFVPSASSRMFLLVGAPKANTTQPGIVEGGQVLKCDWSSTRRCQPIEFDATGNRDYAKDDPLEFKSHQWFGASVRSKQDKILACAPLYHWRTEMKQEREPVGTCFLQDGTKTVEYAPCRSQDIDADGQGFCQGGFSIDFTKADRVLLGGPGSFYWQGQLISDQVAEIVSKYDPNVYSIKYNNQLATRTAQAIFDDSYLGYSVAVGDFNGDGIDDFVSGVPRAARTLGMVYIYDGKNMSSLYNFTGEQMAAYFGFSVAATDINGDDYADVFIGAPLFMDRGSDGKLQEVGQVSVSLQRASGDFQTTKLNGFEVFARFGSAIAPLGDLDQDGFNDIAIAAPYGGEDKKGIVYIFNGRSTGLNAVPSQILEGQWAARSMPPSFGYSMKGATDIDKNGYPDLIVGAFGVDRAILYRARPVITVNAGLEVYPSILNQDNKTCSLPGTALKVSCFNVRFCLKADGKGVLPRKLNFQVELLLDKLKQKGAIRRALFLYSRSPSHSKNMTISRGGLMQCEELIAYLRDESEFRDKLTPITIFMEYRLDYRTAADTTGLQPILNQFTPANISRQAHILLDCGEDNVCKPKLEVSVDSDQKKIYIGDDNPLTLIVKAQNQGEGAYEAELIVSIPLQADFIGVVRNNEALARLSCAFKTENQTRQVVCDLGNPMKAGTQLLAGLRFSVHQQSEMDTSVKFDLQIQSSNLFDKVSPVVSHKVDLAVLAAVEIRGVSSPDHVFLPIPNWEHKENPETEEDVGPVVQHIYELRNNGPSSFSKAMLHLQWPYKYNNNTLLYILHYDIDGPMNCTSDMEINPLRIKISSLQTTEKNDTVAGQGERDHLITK
T1 sequence (P06756 891-1048 partner limits assumed): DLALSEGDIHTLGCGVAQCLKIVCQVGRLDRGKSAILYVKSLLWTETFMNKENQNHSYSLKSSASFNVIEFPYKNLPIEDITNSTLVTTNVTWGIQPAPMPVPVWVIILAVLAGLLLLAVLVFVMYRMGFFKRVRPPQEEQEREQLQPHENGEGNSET
T1 sequence (P05106 27-788): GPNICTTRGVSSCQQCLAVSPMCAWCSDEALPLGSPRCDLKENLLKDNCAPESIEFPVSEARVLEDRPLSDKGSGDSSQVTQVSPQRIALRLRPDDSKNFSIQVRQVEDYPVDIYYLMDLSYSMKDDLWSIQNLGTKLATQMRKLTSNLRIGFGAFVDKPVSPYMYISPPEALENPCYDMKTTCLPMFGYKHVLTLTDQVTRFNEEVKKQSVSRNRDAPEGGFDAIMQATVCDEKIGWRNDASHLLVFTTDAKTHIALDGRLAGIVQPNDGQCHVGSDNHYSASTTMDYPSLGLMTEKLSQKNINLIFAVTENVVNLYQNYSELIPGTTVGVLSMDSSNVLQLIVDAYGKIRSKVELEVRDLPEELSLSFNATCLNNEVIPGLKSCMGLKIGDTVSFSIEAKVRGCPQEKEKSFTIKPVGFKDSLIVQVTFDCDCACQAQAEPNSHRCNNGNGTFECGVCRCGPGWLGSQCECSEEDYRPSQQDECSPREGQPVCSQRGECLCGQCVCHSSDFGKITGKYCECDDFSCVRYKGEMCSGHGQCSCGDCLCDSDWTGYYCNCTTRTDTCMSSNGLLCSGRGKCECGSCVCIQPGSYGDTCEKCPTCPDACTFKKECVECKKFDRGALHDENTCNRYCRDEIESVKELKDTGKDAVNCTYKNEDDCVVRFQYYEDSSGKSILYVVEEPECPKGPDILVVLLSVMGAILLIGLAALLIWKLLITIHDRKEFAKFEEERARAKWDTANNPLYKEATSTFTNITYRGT
Protocol: as §1

Chain of GPIIb/IIIa (P08514 32-887 limits assumed): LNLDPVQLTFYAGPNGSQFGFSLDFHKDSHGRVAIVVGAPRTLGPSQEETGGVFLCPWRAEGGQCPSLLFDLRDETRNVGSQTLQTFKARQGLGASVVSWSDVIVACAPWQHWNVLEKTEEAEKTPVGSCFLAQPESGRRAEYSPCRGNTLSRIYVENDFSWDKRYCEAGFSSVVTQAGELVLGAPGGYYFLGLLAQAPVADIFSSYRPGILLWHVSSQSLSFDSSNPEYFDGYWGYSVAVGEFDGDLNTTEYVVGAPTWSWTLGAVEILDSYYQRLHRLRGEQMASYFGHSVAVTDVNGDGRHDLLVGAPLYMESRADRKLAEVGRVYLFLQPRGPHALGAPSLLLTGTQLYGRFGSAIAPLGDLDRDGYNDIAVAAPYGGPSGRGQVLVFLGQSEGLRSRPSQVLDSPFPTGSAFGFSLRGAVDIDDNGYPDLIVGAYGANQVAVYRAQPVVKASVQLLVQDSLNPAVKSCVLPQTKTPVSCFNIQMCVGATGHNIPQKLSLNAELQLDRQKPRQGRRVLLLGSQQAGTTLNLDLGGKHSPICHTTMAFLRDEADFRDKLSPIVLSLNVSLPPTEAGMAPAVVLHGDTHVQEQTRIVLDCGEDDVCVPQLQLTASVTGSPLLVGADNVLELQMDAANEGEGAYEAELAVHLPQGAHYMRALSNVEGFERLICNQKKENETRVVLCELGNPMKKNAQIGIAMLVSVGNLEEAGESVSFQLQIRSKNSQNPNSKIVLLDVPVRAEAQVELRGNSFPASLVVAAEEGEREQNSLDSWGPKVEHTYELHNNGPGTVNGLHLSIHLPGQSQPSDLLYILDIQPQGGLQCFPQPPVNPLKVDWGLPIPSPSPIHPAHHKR
Chain of GPIIb/IIIa (P08514 891-1039 partner limits assumed): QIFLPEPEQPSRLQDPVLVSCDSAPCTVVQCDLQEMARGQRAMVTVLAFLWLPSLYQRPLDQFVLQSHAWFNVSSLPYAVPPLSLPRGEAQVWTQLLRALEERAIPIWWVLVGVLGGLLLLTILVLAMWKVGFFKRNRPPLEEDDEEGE
Chain of GPIIb/IIIa (P05106 27-788): as the sequence (P05106 27-788) above

Structure (SMILES) | IC50 (GPIIb/IIIa) [nM] | IC50 (Human αvβ3) [nM]
Cc1cccc(Cl)c1S(=O)(=O)N[C@@H](Cc1nc2ccc(/C=C/CNc3ccccn3)cc2c(=O)[nH]1)C(=O)O [Compound 29, α-[[(2-chloro-6-methylphenyl)sulfonyl]amino]-(αS)-3,4-dihydro-4-oxo-6-[(1E)-3-(2-pyridinylamino)-1-propenyl]-2-quinazolinepropanoic acid] | 240 | 38
COc1ccc(S(=O)(=O)N[C@@H](Cc2nc3ccc(/C=C/CNC(=O)NCc4ccccc4)cc3c(=O)[nH]2)C(=O)O)cc1 [Compound 57, (αS)-3,4-dihydro-α-[[(4-methoxyphenyl)sulfonyl]amino]-4-oxo-6-[(1E)-3-[[[(phenylmethyl)amino]carbonyl]amino]-1-propenyl]-2-quinazolinepropanoic acid] | 3700 | 43
O=C(O)CCc1nc2ccc(/C=C/CNc3ccccn3)cc2c(=O)n1Cc1ccccc1 [Compound 82, 3,4-dihydro-4-oxo-3-(phenylmethyl)-6-[(1E)-3-(2-pyridinylamino)-1-propenyl]-2-quinazolinepropanoic acid] | > 50000 | > 5000
COc1ccc(S(=O)(=O)N[C@@H](Cc2nc3ccc(/C=C/CNc4ccc(Cl)cn4)cc3c(=O)[nH]2)C(=O)O)cc1 [Compound 40, 6-[(1E)-3-[(5-chloro-2-pyridinyl)amino]-1-propenyl]-(αS)-3,4-dihydro-α-[[(4-methoxyphenyl)sulfonyl]amino]-4-oxo-2-quinazolinepropanoic acid] | 1900 | 740
COc1cccc([C@@H](CC(=O)O)c2nc3ccc(/C=C/CNc4ccccn4)cc3c(=O)[nH]2)c1 [Compound 17, (βR)-3,4-dihydro-β-(3-methoxyphenyl)-4-oxo-6-[(1E)-3-(2-pyridinylamino)-1-propenyl]-2-quinazolinepropanoic Acid] | 18000 | > 50000
O=C(O)[C@H](Cc1nc2ccc(/C=C/CNc3ccccn3)cc2c(=O)[nH]1)NS(=O)(=O)c1cccs1 [Compound 34, (αS)-3,4-dihydro-4-oxo-6-[(1E)-3-(2-pyridinylamino)-1-propenyl]-α-[(2-thienylsulfonyl)amino]-2-quinazolinepropanoic acid] | 1600 | 83
Cc1ccnc(NC/C=C/c2ccc3nc(C[C@H](NS(=O)(=O)c4c(C)c(C)c(C)c(C)c4C)C(=O)O)[nH]c(=O)c3c2)c1 [Compound 45, (αS)-3,4-dihydro-6-[(1E)-3-[(4-methyl-2-pyridinyl)amino]-1-propenyl]-4-oxo-α-[[(2,3,4,5,6-pentamethylphenyl)sulfonyl]amino]-2-quinazolinepropanoic acid] | 1800 | 15
Cc1c(C)c(C)c(S(=O)(=O)N[C@@H](Cc2nc3ccc(/C=C/CNC4=NCCC4)cc3c(=O)[nH]2)C(=O)O)c(C)c1C [Compound 15, 6-[(1E)-3-[(3,4-dihydro-2H-pyrrol-5-yl)amino]-1-propenyl]-(αS)-3,4-dihydro-4-oxo-α-[[(2,3,4,5,6-pentamethylphenyl)sulfonyl]amino]-2-quinazolinepropanoic Acid] | 77 | 18
Cc1c(C)c(C)c(S(=O)(=O)N[C@@H](Cc2nc3ccc(/C=C/CNC(=O)NCCc4ccccc4)cc3c(=O)[nH]2)C(=O)O)c(C)c1C [Compound 80, (αS)-3,4-dihydro-4-oxo-α-[[(2,3,4,5,6-pentamethylphenyl)sulfonyl]amino]-6-[(1E)-3-[[[(2-phenylethyl)amino]carbonyl]amino]-1-propenyl]-2-quinazolinepropanoic acid] | 2700 | 
O=C(O)[C@H](Cc1nc2ccc(/C=C/CNc3ccccn3)cc2c(=O)[nH]1)NS(=O)(=O)c1ccc(-c2ccon2)s1 [Compound 31, (αS)-3,4-dihydro-α-[[[5-(3-isoxazolyl)-2-thienyl]sulfonyl]amino]-4-oxo-6-[(1E)-3-(2-pyridinylamino)-1-propenyl]-2-quinazolinepropanoic acid] | 1800 | 70
Cc1ccc(NC/C=C/c2ccc3nc(C[C@H](NS(=O)(=O)c4c(C)c(C)c(C)c(C)c4C)C(=O)O)[nH]c(=O)c3c2)nc1 [Compound 43, (αS)-3,4-dihydro-6-[(1E)-3-[(5-methyl-2-pyridinyl)amino]-1-propenyl]-4-oxo-α-[[(2,3,4,5,6-pentamethylphenyl)sulfonyl]amino]-2-quinazolinepropanoic acid] | 880 | 22
COc1ccc(S(=O)(=O)N[C@@H](Cc2nc3ccc(/C=C/CNC4=NCCN4)cc3c(=O)[nH]2)C(=O)O)cc1 [Compound 50, 6-[(1E)-3-[(4,5-dihydro-1H-imidazol-2-yl)amino]-1-propenyl]-(αS)-3,4-dihydro-α-[[(4-methoxyphenyl)sulfonyl]amino]-4-oxo-2-quinazolinepropanoic acid] | 51 | 6.8
Cc1c(C)c(C)c(S(=O)(=O)N[C@@H](Cc2nc3ccc(CCCNc4ccccn4)cc3c(=O)[nH]2)C(=O)O)c(C)c1C [Compound 11, (αS)-3,4-dihydro-4-oxo-α-[[(2,3,4,5,6-pentamethylphenyl)sulfonyl]amino]-6-[3-(2-pyridinylamino)propyl]-2-quinazolinepropanoic Acid] | 640 | 9.6
Cc1c(C)c(C)c(S(=O)(=O)N[C@@H](Cc2nc3ccc(/C=C/CNC4=NCCN4)cc3c(=O)[nH]2)C(=O)O)c(C)c1C [Compound 1, 6-[(1E)-3-[(4,5-dihydro-1H-imidazol-2-yl)amino]-1-propenyl]-(αS)-3,4-dihydro-4-oxo-α-[[(2,3,4,5,6-pentamethylphenyl)sulfonyl]amino]-2-quinazolinepropanoic Acid] | 24 | 0.75
O=C(O)[C@H](Cc1nc2ccc(/C=C/CNc3ccccn3)cc2c(=O)[nH]1)NS(=O)(=O)c1ccc2ccccc2c1 [Compound 24, (αS)-3,4-dihydro-α-[(2-naphthalenylsulfonyl)amino]-4-oxo-6-[(1E)-3-(2-pyridinylamino)-1-propenyl]-2-quinazolinepropanoic acid] | 1400 | 23
Cc1c(C)c(C)c(S(=O)(=O)N[C@@H](Cc2nc3ccc(/C=C/CNC4=NCCCC4)cc3c(=O)[nH]2)C(=O)O)c(C)c1C [Compound 52, (αS)-3,4-dihydro-4-oxo-α-(α^2S)-[[(2,3,4,5,6-pentamethylphenyl)sulfonyl]amino]-6-[(1E)-3-[(3,4,5,6-tetrahydro-2-pyridinyl)amino]-1-propenyl]-2-quinazolinepropanoic acid] | 110 | 24
Cc1cccnc1NC/C=C/c1ccc2nc(C[C@H](NS(=O)(=O)c3c(C)c(C)c(C)c(C)c3C)C(=O)O)[nH]c(=O)c2c1 [Compound 38, (αS)-3,4-dihydro-6-[(1E)-3-[(3-methyl-2-pyridinyl)amino]-1-propenyl]-4-oxo-α-[[(2,3,4,5,6-pentamethylphenyl)sulfonyl]amino]-2-quinazolinepropanoic acid] | 220 | 1400
Cc1c(C)c(C)c(S(=O)(=O)N[C@@H](Cc2nc3ccc(/C=C/CNC(=O)Nc4ccccc4)cc3c(=O)[nH]2)C(=O)O)c(C)c1C [Compound 13, (αS)-3,4-dihydro-4-oxo-α-[[(2,3,4,5,6-pentamethylphenyl)sulfonyl]amino]-6-[(1E)-3-[[(phenylamino)carbonyl]amino]-1-propenyl]-2-quinazolinepropanoic Acid] | 1700 | 140
Cc1c(C)c(C)c(S(=O)(=O)N[C@@H](Cc2nc3ccc(/C=C/CNC(N)=O)cc3c(=O)[nH]2)C(=O)O)c(C)c1C [Compound 53, 6-[(1E)-3-[(aminocarbonyl)amino]-1-propenyl]-(αS)-3,4-dihydro-4-oxo-α-[[(2,3,4,5,6-pentamethylphenyl)sulfonyl]amino]-2-quinazolinepropanoic acid] | 200 | 31
CC(C)(C)c1ccc(S(=O)(=O)N[C@@H](Cc2nc3ccc(/C=C/CNc4ccccn4)cc3c(=O)[nH]2)C(=O)O)cc1 [Compound 23, α-[[[4-(1,1-dimethylethyl)phenyl]sulfonyl]amino]-(αS)-3,4-dihydro-4-oxo-6-[(1E)-3-(2-pyridinylamino)-1-propenyl]-2-quinazolinepropanoic acid] | 6400 | 
